Experiments:
His-AKT (Full Length) = His-AKT (Full Length) (Homo sapiens (Human), UniProt P31749); assay: AKT enzyme assay; format: biochemical; settings: read-out: IC50 AKT
Description: A TTP Mosquito liquid handling instrument is used to place 125n1 of the appropriate concentration of inhibitor in 100% DMSO (for a dose response curve calculation) into each well of a 384-well plate.
The reaction is incubated for 90 min at 25 C, and then stopped by the addition of 70 μl of Stop buffer (100 mM HEPES pH 7.5, 0.015% Brij-35, 10 mM EDTA (Sigma, E7889)).
The plate is read on a Caliper LC 3000 in an Off-Chip mobility shift assay format, using the following parameters for a 12-sipper chip: screening pressure −2.3 psi, upstream voltage −500, and downstream voltage −3000. These conditions cause unphosphorylated substrate and phosphorylated product peptide to resolve as separate peaks allowing direct measurement of percentage of conversion of substrate to product. The percent conversion can be plotted against concentration of inhibitor to produce a sigmoidal dose response curve, from which an IC50 can be calculated.

P70S6K (T412E mutant) = P70S6K (T412E mutant) (Homo sapiens (Human), UniProt P23443, T412E); assay: P70S6K enzyme assay; format: biochemical; settings: read-out: IC50 p70S6K
Description: P70S6K inhibitor compounds are diluted and plated in 96 well plates. […] The reaction is incubated for 90 min at 25° C., before the addition of 10 mM EDTA to stop the reaction. The proportion of substrate and product (phosphorylated) peptide is analysed on a Caliper Life Sciences Lab Chip 3000, using a pressure of −1.4 psi, and upstream and downstream voltages of −3000 and −700 respectively. Product peaks are resolved before substrate peaks on the resulting chromatograms.

Chain of P70S6K (T412E mutant) (P23443 whole entry T412E): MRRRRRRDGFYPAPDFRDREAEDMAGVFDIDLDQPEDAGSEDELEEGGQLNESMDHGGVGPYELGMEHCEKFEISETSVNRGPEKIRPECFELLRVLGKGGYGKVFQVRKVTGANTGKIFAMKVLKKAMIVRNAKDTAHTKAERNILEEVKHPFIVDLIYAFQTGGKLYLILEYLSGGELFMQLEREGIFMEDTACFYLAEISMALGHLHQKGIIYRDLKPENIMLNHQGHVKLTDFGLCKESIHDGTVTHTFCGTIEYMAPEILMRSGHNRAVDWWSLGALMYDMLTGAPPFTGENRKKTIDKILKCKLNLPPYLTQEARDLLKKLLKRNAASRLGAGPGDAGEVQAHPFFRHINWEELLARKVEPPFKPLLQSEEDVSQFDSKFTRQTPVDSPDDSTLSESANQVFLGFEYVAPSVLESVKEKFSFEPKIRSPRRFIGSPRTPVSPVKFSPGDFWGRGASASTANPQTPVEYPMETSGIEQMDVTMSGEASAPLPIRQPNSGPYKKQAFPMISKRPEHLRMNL
Chain of His-AKT (Full Length) (P31749 whole entry): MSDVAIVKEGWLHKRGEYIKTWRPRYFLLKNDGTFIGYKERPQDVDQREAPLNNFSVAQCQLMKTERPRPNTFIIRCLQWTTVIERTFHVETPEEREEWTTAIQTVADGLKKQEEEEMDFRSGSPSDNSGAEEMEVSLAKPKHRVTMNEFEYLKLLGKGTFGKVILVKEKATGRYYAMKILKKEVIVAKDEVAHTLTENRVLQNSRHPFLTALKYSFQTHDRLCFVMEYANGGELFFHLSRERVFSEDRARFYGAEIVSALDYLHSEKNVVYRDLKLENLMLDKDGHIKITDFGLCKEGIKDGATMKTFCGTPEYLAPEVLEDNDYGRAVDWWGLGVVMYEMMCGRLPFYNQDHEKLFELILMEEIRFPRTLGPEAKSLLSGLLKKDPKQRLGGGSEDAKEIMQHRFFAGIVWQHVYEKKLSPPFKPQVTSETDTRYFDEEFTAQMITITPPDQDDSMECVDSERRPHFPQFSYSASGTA

Compound	IC50 (His-AKT (Full Length))	IC50 (P70S6K (T412E mutant))
NC(=O)c1c(N)ncnc1N1CCC(c2nc(-c3ccccc3)cn2CCN2CCC2)CC1 [Compound 136, 4-amino-6-(4-(1-(2-(azetidin-1-yl)ethyl)-4-phenyl-1H-imidazol-2-yl)piperidin-1-yl)pyrimidine-5-carboxamide]	1900 nM	8.4 nM
Cc1cc(-c2cn(CCN3CCC3)c(C3CCN(c4ncnc(N)c4C#N)CC3)n2)ccc1F [Compound 122, 4-amino-6-(4-(1-(2-(azetidin-1-yl)ethyl)-4-(4-fluoro-3-methylphenyl)-1H-imidazol-2-yl)piperidin-1-yl)pyrimidine-5-carbonitrile]	2 nM	0.7 nM
Cc1ncc(-c2c(N)ncnc2N2CCC(c3nc(-c4ccc(F)c(C(F)(F)F)c4)cn3C)CC2)s1 [Compound 55, 6-{4-[4-(4-Fluoro-3-trifluoromethyl-phenyl)-1-methyl-1H-imidazol-2-yl]-piperidin-1-yl}-5-(2-methyl-thiazol-5-yl)-pyrimidin-4-ylamine]	850 nM	2.1 nM
CN(C)CCn1cc(-c2ccc(F)c(C(F)(F)F)c2)nc1C1CCN(c2ncnc(N)c2-c2cnc(N)nc2)CC1 [Compound 71, 6′-{4-[1-(2-Dimethylamino-ethyl)-4-(4-fluoro-3-trifluoromethyl-phenyl)-1H-imidazol-2-yl]-piperidin-1-yl}-[5,5′]bipyrimidinyl-2,4′-diamine]	450 nM	5.6 nM
CCc1c(N)ncnc1N1CCC(c2nc(-c3cnc(N(C)C)nc3)cn2CCN2CCC2)CC1 [Compound 352, 6-{4-[1-(2-Azetidin-1-yl-ethyl)-4-(2-dimethylamino-pyrimidin-5-yl)-1H-imidazol-2-yl]-piperidin-1-yl}-5-ethyl-pyrimidin-4-ylamine]	5700 nM	310 nM
NC(=O)c1c(N)ncnc1N1CCC(c2nc(-c3ccc(OC(F)F)cc3)cn2CCN2CCC2)CC1 [Compound 81, 4-Amino-6-{4-[1-(2-azetidin-1-yl-ethyl)-4-(4-difluoromethoxy-phenyl)-1H-imidazol-2-yl]-piperidin-1-yl}-pyrimidine-5-carboxylic acid amide]	15000 nM	98 nM
NC(=O)c1c(N)ncnc1N1CCC(c2nc(-c3ccc(F)c(C(F)(F)F)c3)cn2CCN2CCCCC2)CC1 [Compound 337]	11 nM	3.5 nM
Nc1ncnc(N2CCC(c3nc(-c4ccc(F)c(C(F)(F)F)c4)cn3CCN3CCCC3)CC2)c1Br [Compound 56]	14 nM	3.5 nM
Cc1cc(-c2cn(CCNCC3CC3)c(C3CCN(c4ncnc(N)c4C(N)=O)CC3)n2)ccc1F [Compound 383, 4-Amino-6-{4-[1-[2-(cyclopropylmethyl-amino)-ethyl]-4-(4-fluoro-3-methyl-phenyl)-1H-imidazol-2-yl]-piperidin-1-yl}-pyrimidine-5-carboxylic acid amide]	8.4 nM	3.3 nM
N#Cc1c(N)ncnc1N1CCC(c2nc(-c3ccc(OC(F)F)c(F)c3)cn2CCN2CCC2)CC1 [Compound 314]	4.1 nM	1.8 nM
CCN(CC)CCn1cc(-c2ccc(F)c(C)c2)nc1C1CCN(c2ncnc(N)c2C#N)CC1 [Compound 326]	2.5 nM	2.7 nM
Nc1ncnc(N2CCC(c3nc(-c4ccc(F)c(C(F)(F)F)c4)cn3CCN3CCC3)CC2)c1OCC(F)(F)F [Compound 103, 6-(4-(1-(2-(azetidin-1-yl)ethyl)-4-(4-fluoro-3-(trifluoromethyl)phenyl)-1H-imidazol-2-yl)piperidin-1-yl)-5-(2,2,2-trifluoroethoxy)pyrimidin-4-amine]	6.6 nM	4.2 nM
Nc1ncnc(N2CCC(c3nc(-c4ccc(F)c(C(F)(F)F)c4)c[nH]3)CC2)c1Br [Compound 43, 5-Bromo-6-{4-[4-(4-fluoro-3-trifluoromethyl-phenyl)-1H-imidazol-2-yl]-piperidin-1-yl}-pyrimidin-4-ylamine]	600 nM	1.7 nM
CNCCn1cc(-c2ccc(F)c(C)c2)nc1C1CCN(c2ncnc(N)c2C#N)CC1 [Compound 394, 4-Amino-6-{4-[4-(4-fluoro-3-methyl-phenyl)-1-(2-methylamino-ethyl)-1H-imidazol-2-yl]-piperidin-1-yl}-pyrimidine-5-carbonitrile]	1.7 nM	0.9 nM
COc1cc(-c2cn(CCN3CCC3)c(C3CCN(c4ncnc(N)c4C#N)CC3)n2)ccc1F [Compound 120, 4-amino-6-(4-(1-(2-(azetidin-1-yl)ethyl)-4-(4-fluoro-3-methoxyphenyl)-1H-imidazol-2-yl)piperidin-1-yl)pyrimidine-5-carbonitrile]	2.4 nM	1 nM
CC(C)Oc1c(N)ncnc1N1CCC(c2nc(-c3ccc(F)c(C(F)(F)F)c3)cn2CCN2CCC2)CC1 [Compound 96, 6-(4-(1-(2-(azetidin-1-yl)ethyl)-4-(4-fluoro-3-(trifluoromethyl)phenyl)-1H-imidazol-2-yl)piperidin-1-yl)-5-isopropoxypyrimidin-4-amine]	7.9 nM	5.3 nM

Compound	IC50 (His-AKT (Full Length))	IC50 (P70S6K (T412E mutant))
NC(=O)c1c(N)ncnc1N1CCC(c2nc(-c3ccnc(C4CC4)c3)cn2CCN2CCC2)CC1 [Compound 342]	61 nM	3.7 nM
Cc1ccc(-c2cn(CCN3CCC3)c(C3CCN(c4ncnc(N)c4C(N)=O)CC3)n2)cc1Cl [Compound 346]	220 nM	3.9 nM
NC(=O)c1c(N)ncnc1N1CCC(c2nc(-c3ccc(F)c(Cl)c3)cn2CCN2CCC2)CC1 [Compound 79, 4-Amino-6-{4-[1-(2-azetidin-1-yl-ethyl)-4-(3-chloro-4-fluoro-phenyl)-1H-imidazol-2-yl]-piperidin-1-yl}-pyrimidine-5-carboxylic acid amide]	7.5 nM	0.9 nM
Cn1cc(-c2ccc(F)c(C(F)(F)F)c2)nc1C1CCN(c2ncnc(N)c2C#N)CC1 [Compound 7, 4-Amino-6-{4-[4-(4-fluoro-3-trifluoromethyl-phenyl)-1-methyl-1H-imidazol-2-yl]-piperidin-1-yl}-pyrimidine-5-carbonitrile]	110 nM	1.5 nM
Cn1cc(-c2ccc(F)c(C(F)(F)F)c2)nc1C1CCN(c2ncnc(N)c2-c2cncnc2)CC1 [Compound 48, 6-{4-[4-(4-Fluoro-3-trifluoromethyl-phenyl)-1-methyl-1H-imidazol-2-yl]-piperidin-1-yl}-[5,5′]bipyrimidinyl-4-ylamine]	440 nM	2.7 nM
CCc1c(N)ncnc1N1CCC(c2nc(-c3cccc(C(F)(F)F)c3)cn2CCN2CCC2)CC1 [Compound 277]	18 nM	3.2 nM
NC(=O)c1c(N)ncnc1N1CCC(c2nc(-c3cnoc3)cn2CCN2CCC2)CC1 [Compound 135, 4-amino-6-(4-(1-(2-(azetidin-1-yl)ethyl)-4-(isoxazol-4-yl)-1H-imidazol-2-yl)piperidin-1-yl)pyrimidine-5-carboxamide]	760 nM	860 nM
Nc1ncnc(N2CCC(c3nc(-c4ccc(F)c(Cl)c4)cn3CCN3CCCC3)CC2)c1C1CCC1 [Compound 262]	4.9 nM	4 nM
Cn1cc(-c2ccc(F)c(C(F)(F)F)c2)nc1C1CCN(c2ncnc(N)c2CO)CC1 [Compound 36, (4-Amino-6-{4-[4-(4-fluoro-3-trifluoromethyl-phenyl)-1-methyl-1H-imidazol-2-yl]-piperidin-1-yl}-pyrimidin-5-yl)-methanol]	1100 nM	2.2 nM
CCC(C)(C)NCCn1cc(-c2ccc(F)c(C(F)(F)F)c2)nc1C1CCN(c2ncnc(N)c2C#N)CC1 [Compound 382, 4-Amino-6-{4-[1-[2-(1,1-dimethyl-propylamino)-ethyl]-4-(4-fluoro-3-trifluoromethyl-phenyl)-1H-imidazol-2-yl]-piperidin-1-yl}-pyrimidine-5-carbonitrile]	4.3 nM	1.7 nM
CCc1c(N)ncnc1N1CCC(c2nc(-c3ccc(C(F)(F)F)c(F)c3)cn2CCN2CC[C@@H](F)C2)CC1 [Compound 246]	25 nM	1.7 nM
Cc1ccc(-c2c(N)ncnc2N2CCC(c3nc(-c4ccc(F)c(C(F)(F)F)c4)cn3C)CC2)cn1 [Compound 19, 6-{4-[4-(4-Fluoro-3-trifluoromethyl-phenyl)-1-methyl-1H-imidazol-2-yl]-piperidin-1-yl}-5-(6-methyl-pyridin-3-yl)-pyrimidin-4-ylamine]	1700 nM	2.2 nM
Cc1cc(-c2cn(CCNC(C)C)c(C3CCN(c4ncnc(N)c4C(N)=O)CC3)n2)ccc1F [Compound 386, 4-Amino-6-{4-[4-(4-fluoro-3-methyl-phenyl)-1-(2-isopropylamino-ethyl)-1H-imidazol-2-yl]-piperidin-1-yl}-pyrimidine-5-carboxylic acid amide]	15 nM	2.4 nM
CCc1c(N)ncnc1N1CCC(c2nc(-c3ccc(F)cc3)cn2CCN2CCCC2)CC1 [Compound 232]	20 nM	2.3 nM
Cc1cc(-c2cn(CCNC(C)C)c(C3CCN(c4ncnc(N)c4C#N)CC3)n2)ccc1F [Compound 380, 4-Amino-6-{4-[4-(4-fluoro-3-methyl-phenyl)-1-(2-isopropylamino-ethyl)-1H-imidazol-2-yl]-piperidin-1-yl}-pyrimidine-5-carbonitrile]	2.9 nM	1.3 nM

From US9145392B2, “Imidazole amines as modulators of kinase activity” (Merck Patent GmbH, priority 2011, dated 2015)
